Reference: patent US7553966B2, “Glucocorticoid mimetics, methods of making them, pharmaceutical compositions, and uses thereof” (Boehringer Ingelheim Pharmaceuticals, Inc., priority 2002, dated 2009)

Key:
glucocorticoid receptor = experiment: Glucocorticoid Receptor Cell Assays (agonist activity in one or more of the above assays); type: cell-based; conditions: qualitative statement; assay not specified
Experimental: B. Glucocorticoid Receptor Cell Assays
1. Induction of Aromatase in Fibroblasts (Cell Assay for Transactivation)
Dexamethasone, a synthetic ligand to the glucocorticoid receptor (GR), induces expression of aromatase in human foreskin fibroblast cells. The activity of aromatase is measured by the conversion of testosterone to estradiol in culture media.
On the day of the experiment, the media in the wells is replaced with fresh media. Cells are treated with test compounds to final concentrations of 10^−5 M to 10^−8 M, and testosterone to a final concentration of 300 ng/mL. Each well has a total volume of 100 μL. Samples are made in duplicates. Control wells include: (a) wells that receive testosterone only, and (b) wells that receive testosterone plus 2 μM of dexamethasone to provide maximum induction of aromatase. Plates are incubated at 37° C. overnight (15 to 18 hours), and supernatants are harvested at the end of incubation. […] The amount of estradiol is inversely proportional to the ELISA signals in each well. The extent of aromatase induction by test compounds is expressed as a relative percentage to dexamethasone. EC50 values of test compounds are derived by non-linear curve fitting.
2. Inhibition of IL-6 Production in Fibroblasts (Cell Assay for Transrepression)
Human foreskin fibroblast cells produce IL-6 in response to stimulation by pro-inflammatory cytokine IL-1.
On the next day, media in the wells is replaced with fresh media. Cells are treated with IL-1 (rhIL-1α, R&D Systems Cat. No. 200-LA) to a final concentration of 1 ng/mL, and with test compounds to final concentrations of 10^−5 M to 10^−8 M, in a total volume of 200 μL per well. Samples are done in duplicates. […] Positive control wells receive IL-1 only and represent maximum (or 100%) amount of IL-6 production. Plates are incubated at 37° C. overnight (15 to 18 hours), and supernatants are harvested at the end of incubation. IL-6 levels in the supernatants are determined by the ELISA kits for IL-6 (MedSystems Diagnostics GmbH, Vienna, Austria, Cat. No. BMS213TEN) according to manufacture's instructions. The extent of inhibition of IL-6 by test compounds is expressed in percentage relative to positive controls. IC50 values of test compounds are derived by non-linear curve fitting.
Evaluation of agonist or antagonist activity of compounds binding to the glucocorticoid receptor may be determined by any of the assays.
3. Modulation of Tyrosine Aminotransferase (TAT) Induction in Rat Hepatoma Cells
Testing of compounds for agonist or antagonist activity in induction of tyrosine aminotransferase (TAT) in rat hepatoma cells.
H4-II-E-C3 cells were incubated overnight in 96 well plates (20,000 cells/100 μL/well) in MEM medium containing 10% heat inactivated FBS and 1% nonessential amino acids. On the next day, cells were stimulated with the indicated concentrations of dexamethasone or test compound (dissolved in DMSO, final DMSO concentration 0.2%) for 18 hours. Control cells were treated with 0.2% DMSO. After 18 hours, the cells were lysed in a buffer containing 0.1% Triton X-100 and the TAT activity was measured in a photometric assay using tyrosine and alpha-ketoglutarate as substrates.
For measuring antagonist activity, the hepatoma cells were pre-stimulated by addition of dexamethasone (concentration ranges from 3×10^−9 M to 3×10^−8 M) shortly before the test compound was applied to the cells.
4. Modulation of MMTV-Luc Induction in HeLa Cells
Testing of compounds for agonist or antagonist activity in stimulation of MMTV-(mouse mammary tumor virus) promoter in HeLa cells.
Cells were cultured overnight in DMEM medium without phenol red, supplemented with 3% CCS (charcoal treated calf serum) and then transferred to 96 well plates (15,000 cells/100 μL/well).

[1] = biological target: T1, human glucocorticoid receptor (GR) complex (Homo sapiens, UniProt P04150); experiment: Glucocorticoid Receptor Competitive Binding Assay (fluorescence polarization, TAMRA-labeled dexamethasone probe); conditions: qualitative statement; competition with TAMRA-labeled dexamethasone
T1 construct: made in house; host or cells: insect expression system (baculovirus lysate)
T1 sequence (P04150 1-777): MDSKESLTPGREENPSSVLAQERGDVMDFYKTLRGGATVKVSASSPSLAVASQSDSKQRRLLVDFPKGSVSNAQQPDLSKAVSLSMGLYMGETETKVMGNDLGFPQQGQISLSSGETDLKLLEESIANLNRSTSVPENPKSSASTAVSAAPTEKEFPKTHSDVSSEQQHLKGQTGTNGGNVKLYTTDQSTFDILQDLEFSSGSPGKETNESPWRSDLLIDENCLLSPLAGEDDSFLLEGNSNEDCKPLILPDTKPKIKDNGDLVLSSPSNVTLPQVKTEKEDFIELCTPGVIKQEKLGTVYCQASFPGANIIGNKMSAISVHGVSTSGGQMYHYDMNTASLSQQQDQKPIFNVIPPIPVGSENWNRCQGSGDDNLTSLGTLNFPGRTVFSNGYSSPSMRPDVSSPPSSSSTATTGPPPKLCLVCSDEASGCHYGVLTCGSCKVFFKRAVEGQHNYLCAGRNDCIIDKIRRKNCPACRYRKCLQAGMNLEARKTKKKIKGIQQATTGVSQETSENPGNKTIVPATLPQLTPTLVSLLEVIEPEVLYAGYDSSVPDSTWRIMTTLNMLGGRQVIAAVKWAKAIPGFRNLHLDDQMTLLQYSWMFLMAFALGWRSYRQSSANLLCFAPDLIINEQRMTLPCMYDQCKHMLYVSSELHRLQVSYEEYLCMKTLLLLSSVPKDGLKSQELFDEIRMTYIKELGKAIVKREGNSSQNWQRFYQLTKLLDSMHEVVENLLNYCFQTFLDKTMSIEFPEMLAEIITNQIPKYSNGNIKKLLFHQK
Procedure, shortened: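 Competition with TAMRA-dexamethasone for a human GR complex expressed in insect cells, read by fluorescence polarization. Buffer was 10 mM TES, 50 mM KCl, 20 mM Na2MoO4, 1.5 mM EDTA, 0.04% CHAPS, 10% glycerol, 1 mM DTT, pH 7.4.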

SMILES | activity in the GR binding assay [1] | activity as agonists of the glucocorticoid receptor function in one or more of the above assays (glucocorticoid receptor)
CC(C)(CC(O)(Cc1ccnc2ccccc12)C(F)(F)F)c1ccccc1 (centres unmarked) [1,1,1-Trifluoro-4-methyl-4-phenyl-2-quinolin-4-ylmethylpentan-2-ol] | potent activity | potent agonists
CC(C)(CC(O)(Cc1ccnc2ccccc12)C(F)(F)F)c1cc(Br)c2c(c1)CCO2 (centres unmarked) [4-(7-Bromo-2,3-dihydrobenzofuran-5-yl)-1,1,1-trifluoro-4-methyl-2-quinolin-4-ylmethylpentan-2-ol] | potent activity | potent agonists
COc1ccc(F)cc1C(C)(C)CC(O)(Cc1cc2ccncc2[nH]1)C(F)(F)F (centres unmarked) [1,1,1-Trifluoro-4-(5-fluoro-2-methoxyphenyl)-4-methyl-2-(1H-pyrrolo[2,3-c]pyridin-2-ylmethyl)pentan-2-ol] | potent activity | potent agonists
COc1ccccc1C(C)(C)CC(O)(Cc1ccnc2ccccc12)C(F)(F)F (centres unmarked) [1,1,1-Trifluoro-4-(2-methoxyphenyl)-4-methyl-2-quinolin-4-ylmethylpentan-2-ol] | potent activity | potent agonists
CC(C)(CC(O)(Cc1ccnc2ccccc12)C(F)(F)F)c1ccc(F)cc1O (centres unmarked) [5-Fluoro-2-(4,4,4-trifluoro-3-hydroxy-1,1-dimethyl-3-quinolin-4-ylmethylbutyl)phenol] | potent activity | potent agonists
COc1cc(F)ccc1C(C)(C)CC(O)(Cc1[nH]c2ccccc2c1C#N)C(F)(F)F (centres unmarked) [2-[4-(4-Fluoro-2-methoxyphenyl)-2-hydroxy-4-methyl-2-trifluoromethyl-pentyl]-1H-indole-3-carbonitrile] | potent activity | potent agonists
CC(C)(CC(O)(Cc1cc2ccncc2[nH]1)C(F)(F)F)c1cc(F)ccc1O (centres unmarked) [4-Fluoro-2-[4,4,4-trifluoro-3-hydroxy-1,1-dimethyl-3-(1H-pyrrolo[2,3-c]pyridin-2-ylmethyl)butyl]phenol] | potent activity | potent agonists
CC(C)(CC(O)(Cc1ccnc2ccccc12)C(F)(F)F)c1cc(F)cc2c1OCC2 (centres unmarked) [1,1,1-Trifluoro-4-(5-fluoro-2,3-dihydrobenzofuran-7-yl)-4-methyl-2-quinolin-4-ylmethylpentan-2-ol] | potent activity | potent agonists
COc1ccc(F)cc1C(C)(C)CC(O)(Cc1cc2cnccc2[nH]1)C(F)(F)F (centres unmarked) [1,1,1-Trifluoro-4-(5-fluoro-2-methoxyphenyl)-4-methyl-2-(1H-pyrrolo[3,2-c]pyridin-2-ylmethyl)pentan-2-ol] | potent activity | potent agonists

Further lines, with some results ahead:

activity in the GR binding assay [1] | SMILES | activity as agonists of the glucocorticoid receptor function in one or more of the above assays (glucocorticoid receptor)
potent activity | CC(C)(CC(O)(Cc1ccnc2ccccc12)C(F)(F)F)c1cccc2c1OCC2 (centres unmarked) [4-(2,3-Dihydrobenzofuran-7-yl)-1,1,1-trifluoro-4-methyl-2-quinolin-4-ylmethylpentan-2-ol] | potent agonists
potent activity | Cc1cccc2[nH]c(CC(O)(CC(C)(C)c3cccc(F)c3)C(F)(F)F)cc12 (centres unmarked) [1,1,1-Trifluoro-4-(3-fluorophenyl)-4-methyl-2-(4-methyl-1H-indol-2-ylmethyl)pentan-2-ol] | potent agonists
potent activity | Cc1ccc(F)cc1C(C)(C)CC(O)(Cc1cc2c(C)cc(C#N)cc2[nH]1)C(F)(F)F (centres unmarked) [2-[4-(5-Fluoro-2-methylphenyl)-2-hydroxy-4-methyl-2-trifluoromethylpentyl]-4-methyl-1H-indole-6-carbonitrile] | potent agonists
potent activity | Cc1cc(C#N)cc2[nH]c(CC(O)(CC(C)(C)c3cccc4c3OCC4)C(F)(F)F)cc12 (centres unmarked) [2-[4-(2,3-Dihydrobenzofuran-7-yl)-2-hydroxy-4-methyl-2-trifluoromethylpentyl]-4-methyl-1H-indole-6-carbonitrile] | potent agonists
potent activity | COc1ccc(F)cc1C(C)(C)CC(O)(Cc1cc2cc(C#N)ccc2[nH]1)C(F)(F)F (centres unmarked) [2-[4-(5-Fluoro-2-methoxyphenyl)-2-hydroxy-4-methyl-2-trifluoromethylpentyl]-1H-indole-5-carbonitrile] | potent agonists
potent activity | CC(C)(CC(O)(Cc1cc2cc(C#N)ccc2[nH]1)C(F)(F)F)c1ccccc1 (centres unmarked) [2-(2-Hydroxy-4-methyl-4-phenyl-2-trifluoromethylpentyl)-1H-indole-5-carbonitrile] | potent agonists
potent activity | Cc1ccc(F)cc1C(C)(C)CC(O)(Cc1cc2cc(C#N)ccc2[nH]1)C(F)(F)F (centres unmarked) [2-[4-(5-Fluoro-2-methylphenyl)-2-hydroxy-4-methyl-2-trifluoromethylpentyl]-1H-indole-5-carbonitrile] | potent agonists
